Patent US10500388B2 (priority 2005, dated 2019)
Where two headings read alike, the source gives them in different places.

Experiments:
E coli = format: cell-based, Escherichia coli
Description: A suitable method is the serial plate transfer test (SPTT) (Bayston R. Grove N, Siegel J, Lawellin D, Barsham S. Prevention of hydrocephalus shunt catheter colonisation in vitro by impregnation with antimicrobials. J Neurol Neurosurg Psychiatr 1989, 52: 605-689) which allows for a portion of an antimicrobial material, typically a catheter segment of approximately 5 mm length, to be placed on the surface of an agar plate seeded with susceptible index bacteria in such a way that the cut ends of the test catheter are not in contact with the eluting surface, by means of a well or other arrangement.
Wound guards (e.g. for protection of catheter or external fixation pin exit sites) in the form of discs of silicone elastomer of 2.5 cm diameter and 3.5 mm thickness were impregnated with either rifampin+clindamycin (A), rifampin+clindamycin+triclosan (B) or triclosan alone (C). […] After overnight incubation, inhibition zones were measured and the discs were transferred to a further seeded plate, and this process repeated until no zones were seen. Any bacterial colonies growing inside the inhibition zones or under the discs were tested for minimal inhibitory concentration (MIC) to triclosan and their identities with the original inoculum determined by pulse field gel electrophoresis. […]

S. aureus = assay: MIC of triclosan for inoculum and for colonies growing inside zones or under discs; format: cell-based; details: Staphylococcus aureus
Description: (§1) Wound guards (e.g. for protection of catheter or external fixation pin exit sites) in the form of discs of silicone elastomer of 2.5 cm diameter and 3.5 mm thickness were impregnated with either rifampin+clindamycin (A), rifampin+clindamycin+triclosan (B) or triclosan alone (C). The discs were then sterilised by autoclaving, and placed on agar plates seeded with the gram-positive bacteria Staphylococcus aureus. After overnight incubation, inhibition zones were measured and the discs were transferred to a further seeded plate, and this process repeated until no zones were seen. Any bacterial colonies growing inside the inhibition zones or under the discs were tested for minimal inhibitory concentration (MIC) to triclosan and their identities with the original inoculum determined by pulse field gel electrophoresis.

E. coli = assay: as above; format: cell-based; details: Escherichia coli
Description: as §1, with “electrophoresis. The results were as follows:” for “electrophoresis.”
The simulation was repeated using plates seeded with the gram-negative bacterium E coli.

[1] = read-out: MIC of triclosan for resistant mutants

Row | SMILES | Activity against E. coli (E coli) | MIC (S. aureus; [1]) [µg/mL] | MIC (S. aureus; S. aureus original inoculum, read-out: MIC of triclosan for inoculum) [µg/mL] | MIC (E. coli; read-out: MIC of triclosan for inoculum) [µg/mL] | MIC (E. coli; [1]) [µg/mL]
1 | CO[C@H]1/C=C/O[C@@]2(C)Oc3c(C)c(O)c4c(O)c(c(/C=N/N5CCN(C)CC5)c(O)c4c3C2=O)NC(=O)/C(C)=C\C=C\[C@H](C)[C@H](O)[C@@H](C)[C@@H](O)[C@@H](C)[C@H](OC(C)=O)[C@@H]1C [Rifampin, 2-(4-methyl-1-piperazinyl-iminomethyl)-rifamycin SV] | no activity | – | – | – | –
2 | CCC[C@@H]1C[C@@H](C(=O)N[C@@H]([C@H]2O[C@H](SC)[C@H](O)[C@@H](O)[C@H]2O)[C@H](C)Cl)N(C)C1 [clindamycin] | no activity | – | – | – | –
3 | Oc1cc(Cl)ccc1Oc1ccc(Cl)cc1Cl [Triclosan] | – | 125 | 3.75 | 16 | 250
